Experimental findings from the RepoRT retention time repository are described below.

This data set can be described thus: RP, Thermo Scientific Hypersil GOLD, 1.9 µm, 40 °C, 0.4 mL/min; A: water + 0.1% formic acid, pH 3; B: acetonitrile + 0.1% formic acid, pH 3; gradient (min/%B) 0/0 1/0 11/100 13/100 14/0 16/0. The following applies: stereoisomer not certain.

For `CSCC1OC(n2cnc3c(N)ncnc32)C(O)C1O` (stereo not given) [METHYLTHIOADENOSINE], the LC retention time amounted to 4.41 min.
For `CC(O)(CCO)CC(=O)[O-]` (stereo not given) [MEVALONATE] the value was 0.55 min; for `OC1C(O)C(O)C(O)C(O)C1O` (stereo not given) [MYOINOSITOL], 0.61 min.
In the case of `OCC1OC(OC2C(CO)OC(OC3C(CO)OC(O)C(O)C3O)C(O)C2O)C(O)C(O)C1O` (stereo not given) [Maltotriose], the LC retention time was found to be 0.61 min.
For `CC(CC(=O)O)C(=O)O` (stereo not given) [Methyl-succinic acid] the value was 3.66 min; for `O=c1c(O)c(-c2ccc(O)cc2O)oc2cc(O)cc(O)c12` [Morin hydrate], 6.29 min.
For `CC(=O)NCCCNCCCCNCCCN` [N1-ACETYLSPERMINE] the value was 0.5 min.
For `CC(C)=CCNc1ncnc2nc[nH]c12` [N6-(DELTA2-ISOPENTENYL)-ADENINE] the value was 5.26 min.
As to `CC(=O)NC(C)C(=O)O` (stereo not given) [N-ACETYLALANINE], the LC retention time was determined as 1.24 min.
For `CC(=O)NC(CC(=O)O)C(=O)O` (stereo not given) [N-ACETYLASPARTATE] the value was 0.83 min; for `CC(=O)NC(CS)C(=O)O` (stereo not given) [N-ACETYLCYSTEINE], 1.9 min; for `CC(=O)NC(CCC(=O)O)C(=O)O` (stereo not given) [N-ACETYLGLUTAMATE], 0.93 min.
For `CC(=O)NCC(=O)O` [N-ACETYLGLYCINE] the value was 0.83 min.
Regarding `CC(=O)NC(CC(C)C)C(=O)O` (stereo not given) [N-ACETYLLEUCINE], the LC retention time came to 5.47 min.
For `CSCCC(NC(C)=O)C(=O)O` (stereo not given) [N-ACETYLMETHIONINE] the value was 4.61 min; for `CC(=O)NC(Cc1ccccc1)C(=O)O` (stereo not given) [N-ACETYLPHENYLALANINE], 5.73 min.
For `CC(=O)NCCCCN` [N-ACETYLPUTRESCINE] the value was 0.71 min; for `CC(=O)NC(CO)C(=O)O` (stereo not given) [N-ACETYLSERINE], 0.78 min; for `CC(=O)NCCc1c[nH]c2ccc(O)cc12` [N-ACETYLSEROTONIN], 4.86 min.
For `CC(=O)NC(Cc1c[nH]c2ccccc12)C(=O)O` (stereo not given) [N-ACETYLTRYPTOPHAN] the value was 5.83 min; for `CC(=O)NC(CCCC[NH3+])C(=O)[O-]` (stereo not drawn) [N-ALPHA-ACETYLLYSINE], 0.72 min; for `CCCCCCCCCCCCCC=CC(O)C(CO)NC(C)=O` [N-Acetyl-D-sphingosine], 10.8 min.
As to `CC(=O)N[C@@H](Cc1ccc(O)cc1)C(=O)O` [N-Acetyl-L-tyrosine], the LC retention time came to 4.56 min.
For `CSCC[C@H](NC=O)C(=O)O` [N-FORMYL-L-METHIONINE] the value was 4.28 min.
For `O=CNCC(=O)O` [N-FORMYLGLYCINE], the LC retention time was 0.74 min.
For `CNC(CC(=O)O)C(=O)O` (stereo not given) [N-METHYLASPARTATE], the LC retention time was 0.63 min.
For `CNC(CCC(=O)O)C(=O)O` (stereo not given) [N-METHYLGLUTAMATE] the value was 0.66 min.
On to `CNCCc1c[nH]c2ccccc12` [N-METHYLTRYPTAMINE], for which the LC retention time came to 4.93 min.
For `CN(C)c1ccc(N)cc1` [N-N-DIMETHYL-1-4-PHENYLENEDIAMINE] the value was 0.83 min; for `C[N+](C)(C)CCCCC(N)C(=O)[O-]` (stereo not given) [N-N-N-TRIMETHYLLYSINE], 0.59 min; for `CN(C)CC(=O)O` [N-N-dimethylglycine], 0.63 min.
For `c1ccc(CNc2ccccc2)cc1` [N-benzylaniline] the value was 8.5 min.
For `Cn1cc(C(N)=O)ccc1=O` [N-methyl-2-pyridone-5-carboxamide], the LC retention time stood at 1.6 min.
On to `NC(=O)c1ccc[n+](C2OC(COP(=O)(O)OP(=O)(O)OCC3OC(n4cnc5c(N)ncnc54)C(OP(=O)(O)O)C3O)C(O)C2O)c1` (stereo not given) [NADP], for which the LC retention time was determined as 4.21 min.
For `CCCCCCCCC=CCCCCCCCCCCCCCC(=O)[O-]` [NERVONATE] the value was 14 min; for `NC(=O)c1ccc[n+](C2OC(COP(=O)(O)OP(=O)(O)OCC3OC(n4cnc5c(=O)[nH]cnc54)C(O)C3O)C(O)C2O)c1` (stereo not given) [NICOTINAMIDE HYPOXANTHINE DINUCLEOTIDE], 0.82 min; for `NC(=O)c1ccc[n+](C2OC(COP(=O)([O-])O)C(O)C2O)c1` (stereo not given) [NICOTINAMIDE MONONUCLEOTIDE], 0.68 min.
For `NC(=O)c1cccnc1` [NICOTINAMIDE] the value was 0.83 min.
For `NCC(O)c1ccc(O)c(O)c1` (stereo not given) [NORADRENALINE] the value was 0.65 min; for `CCCCC(N)C(=O)O` (stereo not given) [NORLEUCINE], 1.67 min.
In the case of `COc1cc(C(O)CN)ccc1O` (stereo not given) [NORMETANEPHRINE], the LC retention time was found to be 0.82 min.
For `NCCCNCCCN` [NORSPERMIDINE] the value was 0.49 min; for `CCCC(N)C(=O)O` (stereo not given) [NORVALINE], 0.82 min; for `O=C1CC(c2ccc(O)cc2)Oc2cc(O)cc(O)c21` (stereo not given) [Naringenin], 7.04 min.
Regarding `O=C(O)c1ccc[n+]([O-])c1` [Nicotinic acid N-oxide], the LC retention time is 0.83 min.
Regarding `O=C(O)c1cccnc1` [Nicotinic acid], the LC retention time came to 0.81 min.
With `CC(=O)OCC(N)C(=O)O` (stereo not given) [O-ACETYLSERINE], the LC retention time came out at 0.69 min.
For `NCCOP(=O)(O)O` [O-PHOSPHOETHANOLAMINE] the value was 0.61 min; for `NC(CCOC(=O)CCC(=O)O)C(=O)O` (stereo not given) [O-SUCCINYL-HOMOSERINE], 0.82 min; for `CCCCCCCCC=CCCCCCCCC(=O)OCC(O)CO` (stereo not given) [OLEOYL-GLYCEROL], 12.1 min.
For `O=C(O)CCCCCCCCCCCO` [OMEGA-HYDROXYDODECANOATE], the LC retention time turned out to be 7.84 min.
For `CCC(NC(=O)CCC(N)C(=O)O)C(=O)NCC(=O)O` (stereo not given) [OPHTHALMATE] the value was 0.83 min; for `O=C([O-])c1cc(=O)[nH]c(=O)[nH]1` [OROTATE], 0.77 min; for `O=C1CCC(C(=O)O)N1` (stereo not given) [OXOPROLINE], 0.82 min.
For `CCCCCCCC(=O)OC(CC(=O)[O-])C[N+](C)(C)C` [Octanoyl-L-carnitine] the value was 6.74 min; for `NCC(O)c1ccc(O)cc1` (stereo not given) [P-OCTOPAMINE], 0.71 min.
For `OCC1OC(OCC2OC(O)(CO)C(O)C2O)C(O)C(O)C1O` (stereo not given) [PALATINOSE] the value was 0.67 min; for `CCCCCCC=CCCCCCCCC(=O)O` [PALMITOLEATE], 11.7 min; for `CC(C)(CO)C(O)C(=O)NCCC(=O)O` (stereo not given) [PANTOTHENATE], 4.11 min.
As for `Cn1c(=O)[nH]c2ncn(C)c2c1=O` [PARAXANTHINE], the LC retention time was 4.41 min.
In the case of `CCCCCCCCCCCC=CCCCCC(=O)[O-]` [PETROSELINATE], the LC retention time stood at 12.5 min.
As to `NCCc1ccccc1` [PHENETHYLAMINE], the LC retention time is 4.03 min.
On to `Oc1ccccc1` [PHENOL], for which the LC retention time came out at 6.21 min.
For `O=CCc1ccccc1` [PHENYLACETALDEHYDE] the value was 10.3 min; for `NCC(O)c1ccccc1` (stereo not given) [PHENYLETHANOLAMINE], 2.24 min.
For `O=C(O)C(=O)Cc1ccccc1` [PHENYLPYRUVATE] the value was 5.26 min.
For `C[N+](C)(C)CCOP(=O)(O)O` [PHOSPHORYLCHOLINE] the value was 0.64 min; for `O=C([O-])c1ccccn1` [PICOLINATE], 0.82 min; for `O=C(O)C1CCCN1` (stereo not given) [PROLINE], 0.69 min.
As for `C=Cc1c(C)c2cc3[nH]c(cc4nc(cc5nc(cc1[nH]2)C(C)=C5CCC(=O)O)C(CCC(=O)O)=C4C)c(C)c3C=C` [PROTOPORPHYRIN], the LC retention time was 11.7 min.
For `Nc1nc2nccnc2c(=O)[nH]1` [PTERIN] the value was 0.82 min; for `c1ncc2[nH]cnc2n1` [PURINE], 0.81 min; for `NCCCCN` [PUTRESCINE], 0.54 min.
For `Cc1ncc(COP(=O)(O)O)c(C=O)c1O` [PYRIDOXAL-PHOSPHATE] the value was 0.83 min; for `Cc1ncc(CO)c(C=O)c1O` [PYRIDOXAL], 0.72 min; for `Cc1ncc(CO)c(CN)c1O` [PYRIDOXAMINE], 0.59 min.
On to `Cc1ncc(CO)c(CO)c1O` [PYRIDOXINE], for which the LC retention time came out at 0.82 min.
For `O=C(O)c1ccc[nH]1` [PYRROLE-2-CARBOXYLATE] the value was 4.3 min; for `CCCCCCCCCCCCCCCC(=O)OC(CC(=O)[O-])C[N+](C)(C)C` [Palmitoyl-L-carnitine], 9.69 min; for `O=P(O)(O)O` [Phosphoric acid_+H+], 0.64 min.
For `O=C(O)c1cccc[n+]1[O-]` [Picolinic acid N-oxide] the value was 2.04 min.
For `CC(C)CC(NC(=O)C1CCCN1)C(=O)O` (stereo not given) [Pro-Leu] the value was 4.4 min.
For the compound `O=C(O)C1(O)CC(O)C(O)C(O)C1` (stereo not given) [QUINATE], the LC retention time amounted to 0.68 min.
Consider `O=C(O)c1cccnc1C(=O)O` [QUINOLINATE], for which the LC retention time amounted to 1.22 min.
For `c1ccc2ncccc2c1` [QUINOLINE] the value was 3.83 min; for `O=c1c(OC2OC(CO)C(O)C(O)C2O)c(-c2ccc(O)c(O)c2)oc2cc(O)cc(O)c12` [Quercetin-3-beta-D-glucoside], 5.53 min.
For `OCC1OC(OCC2OC(OC3(CO)OC(CO)C(O)C3O)C(O)C(O)C2O)C(O)C(O)C1O` (stereo not given) [RAFFINOSE] the value was 0.68 min; for `CC(=O)Oc1cccc(O)c1` [RESORCINOL MONOACETATE], 6.1 min; for `CC(C=CC1=C(C)CCCC1(C)C)=CC=CC(C)=CC(=O)[O-]` [RETINOATE], 11.5 min.
`OCC(O)C(O)C(O)CO` (stereo not given) [RIBITOL]: the LC retention time turned out to be 0.64 min.
